Key:
[1] = target: T1, 3-phosphoinositide-dependent protein kinase 1 (Homo sapiens, UniProt O15530)
T1 sequence (O15530 whole entry): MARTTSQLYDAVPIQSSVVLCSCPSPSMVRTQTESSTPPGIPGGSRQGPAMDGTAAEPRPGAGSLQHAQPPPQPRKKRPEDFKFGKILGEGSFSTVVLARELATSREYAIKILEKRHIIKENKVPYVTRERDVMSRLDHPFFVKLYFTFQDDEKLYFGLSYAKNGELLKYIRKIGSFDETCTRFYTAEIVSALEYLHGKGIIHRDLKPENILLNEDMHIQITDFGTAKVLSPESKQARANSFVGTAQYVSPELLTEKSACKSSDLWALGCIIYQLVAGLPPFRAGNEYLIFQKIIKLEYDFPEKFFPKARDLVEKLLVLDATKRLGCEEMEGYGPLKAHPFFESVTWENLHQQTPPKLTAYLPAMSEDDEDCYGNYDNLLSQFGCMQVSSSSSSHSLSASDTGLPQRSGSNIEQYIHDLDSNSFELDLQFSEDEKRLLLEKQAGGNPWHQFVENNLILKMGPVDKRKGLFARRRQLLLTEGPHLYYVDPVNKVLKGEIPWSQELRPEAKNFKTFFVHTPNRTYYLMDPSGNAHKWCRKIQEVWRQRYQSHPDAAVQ
Description: Inhibition of His-tagged-truncated human PDK1 preincubated with substrate biotinylated-AKT3 for 30 mins measured after 3 hrs by Scintillation proximity assay

[2] = target: T1, 3-phosphoinositide-dependent protein kinase 1; experiment: Inhibition of human PDK1 preincubated with substrate biotinylated PDKtide for 30 mins measured after 4 hrs by Scintillation proximity assay
[3] = target: Ribosomal protein S6 kinase beta-1 (Homo sapiens, UniProt P23443); experiment: Inhibition of p70S6K
Sequence of Ribosomal protein S6 kinase beta-1 (P23443 whole entry): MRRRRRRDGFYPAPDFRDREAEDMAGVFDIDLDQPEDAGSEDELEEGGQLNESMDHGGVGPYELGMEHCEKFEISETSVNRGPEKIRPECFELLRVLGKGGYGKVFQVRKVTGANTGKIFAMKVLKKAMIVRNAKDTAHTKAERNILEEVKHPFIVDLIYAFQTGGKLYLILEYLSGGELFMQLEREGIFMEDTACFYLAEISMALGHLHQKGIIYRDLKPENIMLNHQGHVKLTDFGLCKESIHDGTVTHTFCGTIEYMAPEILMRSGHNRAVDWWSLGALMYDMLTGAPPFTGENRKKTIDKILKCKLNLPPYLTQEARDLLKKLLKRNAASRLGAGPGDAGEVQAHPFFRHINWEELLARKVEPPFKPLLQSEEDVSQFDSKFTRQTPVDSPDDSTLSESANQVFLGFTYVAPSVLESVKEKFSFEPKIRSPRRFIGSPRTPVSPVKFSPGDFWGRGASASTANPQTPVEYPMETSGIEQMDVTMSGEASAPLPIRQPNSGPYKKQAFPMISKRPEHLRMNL

Aurora kinase A = target: T2, Aurora kinase A (Homo sapiens, UniProt O14965); experiment: Inhibition of Aurora A
T2 sequence (O14965 whole entry): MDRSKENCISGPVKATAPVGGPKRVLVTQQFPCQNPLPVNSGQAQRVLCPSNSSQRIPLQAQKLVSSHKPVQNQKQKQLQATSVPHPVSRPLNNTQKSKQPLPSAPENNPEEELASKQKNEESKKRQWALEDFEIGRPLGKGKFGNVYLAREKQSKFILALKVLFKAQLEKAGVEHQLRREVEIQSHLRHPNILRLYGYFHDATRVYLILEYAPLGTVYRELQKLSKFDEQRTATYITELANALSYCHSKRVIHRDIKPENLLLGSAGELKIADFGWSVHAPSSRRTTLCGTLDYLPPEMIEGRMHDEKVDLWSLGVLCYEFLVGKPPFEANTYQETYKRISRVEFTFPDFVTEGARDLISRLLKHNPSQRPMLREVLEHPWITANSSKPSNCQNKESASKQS

Insulin receptor = Insulin receptor (Homo sapiens, UniProt P06213); experiment: Inhibition of INS
Sequence of Insulin receptor (P06213 28-758 limits assumed): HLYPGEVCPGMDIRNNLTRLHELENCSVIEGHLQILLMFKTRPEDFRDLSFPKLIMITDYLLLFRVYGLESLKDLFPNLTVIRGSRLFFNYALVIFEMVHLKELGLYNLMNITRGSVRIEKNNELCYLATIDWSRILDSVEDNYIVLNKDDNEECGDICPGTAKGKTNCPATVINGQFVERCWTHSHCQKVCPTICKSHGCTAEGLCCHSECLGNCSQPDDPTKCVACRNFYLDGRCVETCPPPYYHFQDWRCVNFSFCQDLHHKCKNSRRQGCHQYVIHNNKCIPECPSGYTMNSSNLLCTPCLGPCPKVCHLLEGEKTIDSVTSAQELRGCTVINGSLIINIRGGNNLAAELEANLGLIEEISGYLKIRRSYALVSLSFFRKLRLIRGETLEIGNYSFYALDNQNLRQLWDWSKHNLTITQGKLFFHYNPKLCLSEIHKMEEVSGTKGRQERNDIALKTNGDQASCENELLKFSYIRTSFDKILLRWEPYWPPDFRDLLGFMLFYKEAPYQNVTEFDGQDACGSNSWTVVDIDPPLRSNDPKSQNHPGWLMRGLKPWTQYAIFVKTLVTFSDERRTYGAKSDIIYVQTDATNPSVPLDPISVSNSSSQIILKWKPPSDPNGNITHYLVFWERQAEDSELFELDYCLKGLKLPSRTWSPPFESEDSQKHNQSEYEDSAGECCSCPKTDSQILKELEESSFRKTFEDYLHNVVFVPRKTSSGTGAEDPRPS
Sequence of Insulin receptor (P06213 763-1382 limits assumed): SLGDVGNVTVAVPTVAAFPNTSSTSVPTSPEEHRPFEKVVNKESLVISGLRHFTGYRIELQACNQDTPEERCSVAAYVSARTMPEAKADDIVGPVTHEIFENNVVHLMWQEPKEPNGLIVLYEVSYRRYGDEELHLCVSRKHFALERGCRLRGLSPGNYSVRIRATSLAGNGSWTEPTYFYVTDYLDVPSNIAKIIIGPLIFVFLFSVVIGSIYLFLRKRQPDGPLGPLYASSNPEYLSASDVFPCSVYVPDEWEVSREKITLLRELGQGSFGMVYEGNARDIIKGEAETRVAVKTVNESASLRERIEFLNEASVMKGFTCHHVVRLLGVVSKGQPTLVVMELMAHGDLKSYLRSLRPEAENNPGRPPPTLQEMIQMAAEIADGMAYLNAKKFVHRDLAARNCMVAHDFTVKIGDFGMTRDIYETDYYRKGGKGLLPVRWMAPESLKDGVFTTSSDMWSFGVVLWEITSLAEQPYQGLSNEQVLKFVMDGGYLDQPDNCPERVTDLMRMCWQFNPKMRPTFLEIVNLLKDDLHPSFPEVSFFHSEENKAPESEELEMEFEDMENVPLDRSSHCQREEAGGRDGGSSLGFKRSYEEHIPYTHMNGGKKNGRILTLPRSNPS

[4] = target: T3, Tyrosine-protein kinase JAK3 (Homo sapiens, UniProt P52333); experiment: Inhibition of JAK3
T3 sequence (P52333 whole entry): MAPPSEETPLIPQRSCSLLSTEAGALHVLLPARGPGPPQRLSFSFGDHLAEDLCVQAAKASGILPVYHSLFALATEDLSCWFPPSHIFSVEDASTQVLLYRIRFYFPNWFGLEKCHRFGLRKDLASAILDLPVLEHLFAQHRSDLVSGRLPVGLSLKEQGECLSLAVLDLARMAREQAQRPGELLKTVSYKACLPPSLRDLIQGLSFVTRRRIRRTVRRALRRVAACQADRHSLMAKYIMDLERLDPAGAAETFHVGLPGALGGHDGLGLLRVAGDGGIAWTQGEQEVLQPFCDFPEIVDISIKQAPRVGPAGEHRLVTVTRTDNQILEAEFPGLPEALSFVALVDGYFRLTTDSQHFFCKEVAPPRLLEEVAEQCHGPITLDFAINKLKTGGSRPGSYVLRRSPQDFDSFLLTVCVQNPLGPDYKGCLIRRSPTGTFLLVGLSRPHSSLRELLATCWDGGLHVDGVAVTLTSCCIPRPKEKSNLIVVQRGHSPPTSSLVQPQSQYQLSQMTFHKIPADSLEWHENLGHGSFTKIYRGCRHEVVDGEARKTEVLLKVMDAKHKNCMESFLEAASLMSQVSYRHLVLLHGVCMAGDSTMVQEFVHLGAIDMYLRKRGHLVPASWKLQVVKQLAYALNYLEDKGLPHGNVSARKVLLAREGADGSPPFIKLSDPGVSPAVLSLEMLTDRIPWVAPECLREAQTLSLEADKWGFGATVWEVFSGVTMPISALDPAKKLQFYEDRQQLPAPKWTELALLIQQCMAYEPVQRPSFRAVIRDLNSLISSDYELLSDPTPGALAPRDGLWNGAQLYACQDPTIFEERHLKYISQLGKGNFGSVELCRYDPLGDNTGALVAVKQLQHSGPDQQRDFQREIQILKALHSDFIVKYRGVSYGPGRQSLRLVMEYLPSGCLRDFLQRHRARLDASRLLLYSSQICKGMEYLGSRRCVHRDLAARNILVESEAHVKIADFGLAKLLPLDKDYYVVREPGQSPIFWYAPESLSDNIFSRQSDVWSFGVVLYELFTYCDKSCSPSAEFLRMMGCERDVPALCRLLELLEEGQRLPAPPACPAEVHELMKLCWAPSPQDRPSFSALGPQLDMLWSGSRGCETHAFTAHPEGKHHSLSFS

[5] = target: RAC-alpha serine/threonine-protein kinase (Homo sapiens, UniProt P31749); experiment: Inhibition of AKT1
Sequence of RAC-alpha serine/threonine-protein kinase (P31749 whole entry): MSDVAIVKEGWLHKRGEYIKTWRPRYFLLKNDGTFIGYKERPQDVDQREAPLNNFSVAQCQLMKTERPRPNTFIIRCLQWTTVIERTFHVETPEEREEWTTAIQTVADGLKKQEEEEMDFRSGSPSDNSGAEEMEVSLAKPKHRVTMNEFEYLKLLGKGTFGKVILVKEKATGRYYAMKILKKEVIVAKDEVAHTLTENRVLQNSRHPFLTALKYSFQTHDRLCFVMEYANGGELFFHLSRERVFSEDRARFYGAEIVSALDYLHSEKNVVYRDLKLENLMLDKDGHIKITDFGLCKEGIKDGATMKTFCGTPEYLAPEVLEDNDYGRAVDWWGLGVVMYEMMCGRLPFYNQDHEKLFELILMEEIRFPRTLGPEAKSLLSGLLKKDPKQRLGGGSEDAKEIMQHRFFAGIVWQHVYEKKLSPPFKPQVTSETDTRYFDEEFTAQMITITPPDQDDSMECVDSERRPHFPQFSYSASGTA

[6] = target: Insulin-like growth factor 1 receptor (Homo sapiens, UniProt P08069); experiment: Inhibition of IGF1R
Sequence of Insulin-like growth factor 1 receptor (P08069 31-736 limits assumed): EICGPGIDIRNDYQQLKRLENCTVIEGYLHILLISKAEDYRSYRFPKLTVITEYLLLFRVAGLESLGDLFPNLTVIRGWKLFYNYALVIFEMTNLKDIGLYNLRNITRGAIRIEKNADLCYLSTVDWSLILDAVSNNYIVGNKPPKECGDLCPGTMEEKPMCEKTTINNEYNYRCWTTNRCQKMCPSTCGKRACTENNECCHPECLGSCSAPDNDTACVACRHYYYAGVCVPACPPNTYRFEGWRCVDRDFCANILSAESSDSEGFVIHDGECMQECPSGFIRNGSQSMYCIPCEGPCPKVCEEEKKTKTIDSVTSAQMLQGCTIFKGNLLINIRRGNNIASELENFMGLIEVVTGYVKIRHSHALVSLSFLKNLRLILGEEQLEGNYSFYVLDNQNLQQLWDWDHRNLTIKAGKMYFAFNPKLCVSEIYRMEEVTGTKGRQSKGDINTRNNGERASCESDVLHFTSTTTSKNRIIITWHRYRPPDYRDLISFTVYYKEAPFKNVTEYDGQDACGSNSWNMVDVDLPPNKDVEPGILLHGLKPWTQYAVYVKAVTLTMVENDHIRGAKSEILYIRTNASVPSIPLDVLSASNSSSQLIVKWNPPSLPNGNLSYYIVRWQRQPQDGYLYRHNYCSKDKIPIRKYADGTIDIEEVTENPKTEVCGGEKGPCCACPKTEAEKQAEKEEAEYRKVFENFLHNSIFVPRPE
Sequence of Insulin-like growth factor 1 receptor (P08069 741-1367 limits assumed): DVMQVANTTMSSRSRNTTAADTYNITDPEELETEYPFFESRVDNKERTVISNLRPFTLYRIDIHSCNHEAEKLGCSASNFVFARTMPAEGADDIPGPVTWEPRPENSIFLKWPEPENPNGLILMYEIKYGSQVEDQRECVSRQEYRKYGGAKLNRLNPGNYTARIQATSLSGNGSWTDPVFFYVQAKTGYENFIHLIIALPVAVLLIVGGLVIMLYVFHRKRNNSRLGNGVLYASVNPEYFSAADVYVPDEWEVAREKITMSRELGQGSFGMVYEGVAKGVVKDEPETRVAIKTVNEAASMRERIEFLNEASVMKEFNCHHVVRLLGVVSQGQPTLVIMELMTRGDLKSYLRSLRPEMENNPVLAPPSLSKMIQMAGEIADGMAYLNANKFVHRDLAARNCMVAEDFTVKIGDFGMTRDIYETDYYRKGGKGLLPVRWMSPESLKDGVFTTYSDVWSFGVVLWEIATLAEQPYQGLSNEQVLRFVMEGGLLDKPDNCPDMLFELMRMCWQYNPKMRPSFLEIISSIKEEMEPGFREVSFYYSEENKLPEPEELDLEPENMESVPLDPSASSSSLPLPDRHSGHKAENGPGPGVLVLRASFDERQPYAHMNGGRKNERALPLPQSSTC

[7] = target: Mitogen-activated protein kinase 8 (Homo sapiens, UniProt P45983); experiment: Inhibition of JNK1
[8] = target: T4, Inhibitor of nuclear factor kappa-B kinase subunit alpha (Homo sapiens, UniProt O15111); experiment: Inhibition of IKK1
T4 sequence (O15111 whole entry): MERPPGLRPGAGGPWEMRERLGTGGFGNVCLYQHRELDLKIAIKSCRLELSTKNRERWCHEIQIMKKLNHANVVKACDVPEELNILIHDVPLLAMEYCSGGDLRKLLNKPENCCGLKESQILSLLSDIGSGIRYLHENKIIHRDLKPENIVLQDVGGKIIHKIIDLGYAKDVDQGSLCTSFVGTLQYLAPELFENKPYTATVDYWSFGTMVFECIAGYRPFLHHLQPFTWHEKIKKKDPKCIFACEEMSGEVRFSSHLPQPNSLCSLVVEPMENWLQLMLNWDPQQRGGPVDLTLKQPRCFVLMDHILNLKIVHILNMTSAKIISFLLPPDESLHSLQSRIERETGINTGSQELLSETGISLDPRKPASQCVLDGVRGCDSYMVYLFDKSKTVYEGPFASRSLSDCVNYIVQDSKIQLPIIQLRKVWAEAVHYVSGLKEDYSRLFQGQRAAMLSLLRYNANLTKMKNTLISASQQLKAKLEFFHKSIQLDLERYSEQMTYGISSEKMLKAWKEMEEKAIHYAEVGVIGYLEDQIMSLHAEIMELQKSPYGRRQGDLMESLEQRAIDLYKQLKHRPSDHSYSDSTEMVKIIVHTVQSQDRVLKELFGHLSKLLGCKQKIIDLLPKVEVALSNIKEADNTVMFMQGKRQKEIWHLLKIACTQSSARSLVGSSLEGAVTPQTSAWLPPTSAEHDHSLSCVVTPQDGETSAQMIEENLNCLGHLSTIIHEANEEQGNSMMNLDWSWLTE

[9] = target: T5, Serine/threonine-protein kinase Chk1 (Homo sapiens, UniProt O14757); experiment: Inhibition of CHK1
T5 sequence (O14757 whole entry): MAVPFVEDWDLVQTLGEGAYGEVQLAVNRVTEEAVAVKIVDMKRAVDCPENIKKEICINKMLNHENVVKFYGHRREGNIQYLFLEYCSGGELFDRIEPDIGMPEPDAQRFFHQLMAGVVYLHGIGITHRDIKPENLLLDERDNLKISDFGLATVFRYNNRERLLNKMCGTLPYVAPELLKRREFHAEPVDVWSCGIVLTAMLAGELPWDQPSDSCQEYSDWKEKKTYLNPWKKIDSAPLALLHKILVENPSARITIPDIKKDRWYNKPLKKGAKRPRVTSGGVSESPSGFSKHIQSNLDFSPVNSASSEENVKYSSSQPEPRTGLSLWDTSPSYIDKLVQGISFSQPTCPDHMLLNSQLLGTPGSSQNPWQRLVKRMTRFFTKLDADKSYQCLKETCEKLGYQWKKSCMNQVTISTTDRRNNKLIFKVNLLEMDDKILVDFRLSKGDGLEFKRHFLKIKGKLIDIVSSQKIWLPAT

[10] = target: Phosphatidylinositol 4,5-bisphosphate 3-kinase catalytic subunit alpha isoform (Homo sapiens, UniProt P42336); experiment: Inhibition of PI3Kalpha
[11] = target: Vascular endothelial growth factor receptor 2 (Homo sapiens, UniProt P35968); experiment: Inhibition of VEGFR2
Sequence of Vascular endothelial growth factor receptor 2 (P35968 whole entry): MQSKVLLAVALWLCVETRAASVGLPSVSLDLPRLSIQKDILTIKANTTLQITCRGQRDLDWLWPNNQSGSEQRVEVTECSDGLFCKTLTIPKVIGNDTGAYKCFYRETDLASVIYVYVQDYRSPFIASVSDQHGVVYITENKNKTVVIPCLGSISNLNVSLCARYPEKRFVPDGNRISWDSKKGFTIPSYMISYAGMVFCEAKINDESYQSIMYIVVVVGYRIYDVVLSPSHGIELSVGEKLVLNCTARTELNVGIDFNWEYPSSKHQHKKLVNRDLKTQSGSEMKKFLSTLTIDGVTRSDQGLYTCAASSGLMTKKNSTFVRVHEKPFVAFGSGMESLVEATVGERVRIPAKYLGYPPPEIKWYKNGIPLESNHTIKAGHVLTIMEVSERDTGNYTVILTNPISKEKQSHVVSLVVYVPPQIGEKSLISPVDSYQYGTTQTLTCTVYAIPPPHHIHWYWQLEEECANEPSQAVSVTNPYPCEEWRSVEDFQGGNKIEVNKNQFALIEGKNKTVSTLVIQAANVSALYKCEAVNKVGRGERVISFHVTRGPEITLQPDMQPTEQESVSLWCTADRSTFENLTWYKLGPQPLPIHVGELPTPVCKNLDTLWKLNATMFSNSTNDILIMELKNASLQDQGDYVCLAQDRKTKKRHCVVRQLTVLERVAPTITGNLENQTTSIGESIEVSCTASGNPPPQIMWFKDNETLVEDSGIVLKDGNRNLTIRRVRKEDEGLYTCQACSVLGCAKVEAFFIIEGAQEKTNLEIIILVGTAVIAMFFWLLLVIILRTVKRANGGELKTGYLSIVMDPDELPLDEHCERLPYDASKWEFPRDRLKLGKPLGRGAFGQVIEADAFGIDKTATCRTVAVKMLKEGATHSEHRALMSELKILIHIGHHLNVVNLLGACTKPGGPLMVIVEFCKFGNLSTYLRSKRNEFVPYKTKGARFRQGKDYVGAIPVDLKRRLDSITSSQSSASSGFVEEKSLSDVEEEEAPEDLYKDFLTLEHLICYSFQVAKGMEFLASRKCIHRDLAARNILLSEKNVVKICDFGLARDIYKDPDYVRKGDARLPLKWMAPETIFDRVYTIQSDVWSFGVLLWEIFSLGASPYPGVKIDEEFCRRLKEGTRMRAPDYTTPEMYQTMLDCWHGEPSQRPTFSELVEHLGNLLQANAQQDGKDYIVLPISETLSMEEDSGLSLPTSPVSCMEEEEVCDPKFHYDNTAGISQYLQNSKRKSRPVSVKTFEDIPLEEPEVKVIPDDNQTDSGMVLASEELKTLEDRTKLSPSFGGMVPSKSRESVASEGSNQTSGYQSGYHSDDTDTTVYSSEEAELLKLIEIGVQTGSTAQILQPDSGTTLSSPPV

[12] = target: T6, Mitogen-activated protein kinase kinase kinase 5 (Homo sapiens, UniProt Q99683); experiment: Inhibition of ASK1
T6 sequence (Q99683 whole entry): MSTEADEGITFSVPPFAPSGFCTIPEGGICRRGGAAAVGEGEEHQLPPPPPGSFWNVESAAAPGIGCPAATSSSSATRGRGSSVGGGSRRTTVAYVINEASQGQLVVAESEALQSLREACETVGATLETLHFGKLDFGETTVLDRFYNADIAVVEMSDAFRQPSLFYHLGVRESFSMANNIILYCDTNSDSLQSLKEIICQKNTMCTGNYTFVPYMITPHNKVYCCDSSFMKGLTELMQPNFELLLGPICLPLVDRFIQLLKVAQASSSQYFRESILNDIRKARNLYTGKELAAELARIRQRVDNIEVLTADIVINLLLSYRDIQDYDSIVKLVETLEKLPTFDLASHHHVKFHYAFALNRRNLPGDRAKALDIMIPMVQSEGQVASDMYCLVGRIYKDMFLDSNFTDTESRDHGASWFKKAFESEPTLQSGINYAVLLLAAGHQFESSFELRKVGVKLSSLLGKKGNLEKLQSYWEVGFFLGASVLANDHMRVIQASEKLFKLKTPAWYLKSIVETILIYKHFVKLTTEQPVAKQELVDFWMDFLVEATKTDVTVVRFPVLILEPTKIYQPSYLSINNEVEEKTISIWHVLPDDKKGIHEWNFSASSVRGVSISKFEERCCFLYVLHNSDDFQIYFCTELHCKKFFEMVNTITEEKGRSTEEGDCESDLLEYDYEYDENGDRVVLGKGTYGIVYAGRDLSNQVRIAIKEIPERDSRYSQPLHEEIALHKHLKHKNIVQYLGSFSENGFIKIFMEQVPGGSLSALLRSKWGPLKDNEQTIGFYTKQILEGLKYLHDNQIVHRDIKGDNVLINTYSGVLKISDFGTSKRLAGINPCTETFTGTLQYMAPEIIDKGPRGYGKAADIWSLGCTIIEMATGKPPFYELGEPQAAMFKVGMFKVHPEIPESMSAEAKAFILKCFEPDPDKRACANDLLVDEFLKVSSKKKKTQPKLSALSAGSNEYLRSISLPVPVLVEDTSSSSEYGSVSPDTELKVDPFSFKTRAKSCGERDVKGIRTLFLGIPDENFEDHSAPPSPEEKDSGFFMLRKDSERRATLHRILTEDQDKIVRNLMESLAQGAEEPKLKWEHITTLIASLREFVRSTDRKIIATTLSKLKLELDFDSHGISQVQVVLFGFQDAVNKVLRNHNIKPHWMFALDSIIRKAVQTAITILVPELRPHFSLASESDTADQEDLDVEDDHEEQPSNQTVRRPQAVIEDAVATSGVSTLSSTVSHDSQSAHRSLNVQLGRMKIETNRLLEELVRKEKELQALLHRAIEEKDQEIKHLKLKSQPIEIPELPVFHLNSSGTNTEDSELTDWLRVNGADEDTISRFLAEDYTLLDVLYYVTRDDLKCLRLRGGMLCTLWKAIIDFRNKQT

[13] = target: Cyclin-dependent kinase 2 (Homo sapiens, UniProt P24941); experiment: Inhibition of CDK2
[14] = target: T7, Serine/threonine-protein kinase Sgk1 (Homo sapiens, UniProt O00141); experiment: Inhibition of SGK1
T7 sequence (O00141 whole entry): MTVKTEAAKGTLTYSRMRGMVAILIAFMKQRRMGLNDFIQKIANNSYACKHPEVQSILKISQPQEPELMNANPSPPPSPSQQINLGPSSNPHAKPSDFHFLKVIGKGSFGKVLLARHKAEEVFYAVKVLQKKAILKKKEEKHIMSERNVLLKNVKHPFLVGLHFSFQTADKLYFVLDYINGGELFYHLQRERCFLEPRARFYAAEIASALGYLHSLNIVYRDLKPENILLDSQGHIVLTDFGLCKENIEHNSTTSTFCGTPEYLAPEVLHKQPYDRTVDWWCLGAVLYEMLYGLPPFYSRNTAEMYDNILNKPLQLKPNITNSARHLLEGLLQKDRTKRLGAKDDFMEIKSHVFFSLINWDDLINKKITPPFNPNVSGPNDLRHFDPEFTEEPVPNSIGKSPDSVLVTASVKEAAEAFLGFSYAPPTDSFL

Work on `Nc1cc2ccccc2cn1` [ISOQUINOLIN-3-AMINE] yielded an IC50 [1] of 376 µM.

For `Nc1nc(N)c2[nH]cnc2n1` [2,6-DIAMINOPURINE], the IC50 [1] was 50.8 µM.

In the case of `NC(=O)c1cccc2cc[nH]c12`, the IC50 [1] is reported as 97.5 µM.

Molecule `c1cc(-c2cc[nH]n2)ccn1` has an IC50 [1] of 326 µM.

`NC(=O)c1[nH]ncc1N` showed an IC50 [1] of 200 µM.

For `Nc1cc(-c2ccco2)n[nH]1`, the IC50 [1] was 313 µM.

Molecule `Nc1nccc(-c2ccc3c(N)n[nH]c3c2)n1` has an IC50 [2] of 0.37 µM, an IC50 [3] of 6.34 µM and an IC50 (Aurora kinase A) of 0.39 µM. For the same molecule, the IC50 (Insulin receptor) was greater than 10 µM, the IC50 [4] was 0.99 µM and the IC50 [5] was greater than 10 µM. It also gave an IC50 [6] greater than 10 µM, an IC50 [7] greater than 10 µM and an IC50 [8] of 0.1 µM. For the same molecule, the IC50 [9] was greater than 10 µM, the IC50 [10] was greater than 10 µM and the IC50 [11] was 0.84 µM. The IC50 [12] was 5.69 µM, the IC50 [13] was 0.28 µM and the IC50 [14] was greater than 10 µM.

For `c1ccc(-c2nccs2)cc1` [2-PHENYLTHIAZOLE], the IC50 [1] was 95.1 µM.

Molecule `Nc1cc(-c2ccc3c(N)n[nH]c3c2)ccn1` has an IC50 [2] of 7.28 µM.
